Data published in US8299265B2, “Amine derivatives having NPY Y5 receptor antagonistic activity and the uses thereof” (Shionogi & Co., Ltd., priority 2007, dated 2012).

Columns and labels:
male C57BL/6J mice = assay: Inhibition of Y5 agonist-induced food intake in mice; type: in vivo; conditions: Mus musculus, 4 hours after dosing, read-out: Inhibition ratio of Y5 agonist-induced food intake; for inhibition in vivo at 6 mg/kg: unmarked cells
Method: Under diethylether anesthesia the skull of male C57BL/6J mice (12-14 week old, 25-30 g) was exposed by making an incision about 1-cm long from external occipital crest to nasal dorsum, and then drilled in the 1-mm lateral position to the left following 1-mm posterior from bregma. After recovery from anesthesia mice were dosed with either 0.5% hydroxypropylmethyl cellulose solution (vehicle, Shin-Etsu Chemical Co., Ltd) or the compounds of this invention suspended in the 0.5% hydroxypropylmethyl cellulose solution. At one hour after the treatment, each animal received saline or a NPY Y5 receptor specific agonist, [cPP^1-7, NPY^19-23, Ala^31, Aib^32, Gln^34]-hPancreatic Polypeptide (0.1 nmol/1.5 μL saline/mouse) through the skull opening using a canula. Residual food was measured at 2 and 4 hours after the treatment.

mouse NPY Y5 receptor = molecular target: T1, mouse NPY Y5 receptor (Mus musculus, UniProt O70342); assay: Affinity for mouse NPY Y5 receptor ([125I] peptide YY binding, CHO cell membranes); conditions: membranes of CHO cells expressing mouse NPY Y5 receptor
T1 construct: expressed in transfected cells; membranes used
T1 sequence (O70342 1-466): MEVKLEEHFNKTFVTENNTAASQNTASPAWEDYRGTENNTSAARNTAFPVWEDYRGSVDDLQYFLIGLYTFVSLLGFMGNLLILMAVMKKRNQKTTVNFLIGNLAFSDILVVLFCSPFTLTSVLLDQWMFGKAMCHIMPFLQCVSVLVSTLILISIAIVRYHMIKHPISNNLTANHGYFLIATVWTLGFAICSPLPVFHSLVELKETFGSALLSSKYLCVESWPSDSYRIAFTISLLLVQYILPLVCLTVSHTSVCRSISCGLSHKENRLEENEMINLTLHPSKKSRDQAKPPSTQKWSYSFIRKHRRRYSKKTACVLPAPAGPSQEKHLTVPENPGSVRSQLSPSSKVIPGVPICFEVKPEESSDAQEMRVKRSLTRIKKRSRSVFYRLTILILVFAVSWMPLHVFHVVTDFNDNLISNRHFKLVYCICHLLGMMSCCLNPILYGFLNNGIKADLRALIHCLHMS
Excerpt: cDNA sequence encoding a mouse NPY Y5 receptor (Biochim. Biophys. Acta 1328, 83-89, 1997) was cloned in a vector (pME18S, Takebe et al. Mol. Cell. Biol. 8, 466-472). The obtained expression vector was transfected into CHO cells as a host by using Lipofect AMINE reagent (Trademark, Gico BRL Co., Ltd.) according to the instruction manual. The cells that stably express NPY Y5 receptor were obtained.
The membranes prepared from the CHO cells expressing NPY Y5 receptor, the compound of this invention and 30,000 cpm [^125I] peptide YY (60 pM of final concentration: Amersham) were incubated in the assay buffer (20 mM HEPES-Hanks buffer containing 0.1% bovine serum albumin, pH 7.4) at 25° C. for 2 hours, and then the membrane was filtered from the mixture through a glassfilter (GF/C) presoaked with 1% polyethyleneimine. After washing with 50 mM Tris-HCl buffer (pH 7.4), radioactivity retained on the filters was quantified with a gamma counter.
Nonspecific binding was defined as the amount of radioactivity bound to the membranes after incubation in the presence of 200 nM of peptide YY. The 50% inhibitory concentration of the test compound against the specific peptide YY binding (IC50 value) was calculated (Inui, A. et al. Endocrinology 131, 2090-2096 (1992)).

P-gp = molecular target: T2, P-gp (Mus musculus, UniProt P21447); assay: Potential for drug-drug interactions through P-gp in vivo (Kp with or without cyclosporin A); conditions: mice, Kp with versus without cyclosporin A (20 mg/kg)
T2 construct: from tissue; host or cells: living mice (Jcl; C57BL/6J, male, 7 weeks), brain / blood-brain barrier
Method: Transportability of the compounds of this invention through the blood-brain barrier (blood-brain partition coefficient; Kp) in mice (Jcl; C57BL/6J mice, ♂, 7 weeks) was defined from the difference in concentration of the compounds between in plasma and in brain after intravenous administration of the compounds (0.5 mg/2 mL/kg). The brain Kp value of Compound (I-72) (Kp Cont.) was 1.29 showing high transportability through the blood-brain barrier.
To examine the potential for drug-drug interactions through P-gp in vivo, the Kp values of compounds of this invention with (KpCSA) or without (KpCont.) cyclosporin A (20 mg/kg), a P-gp inhibitor, were calculated. The KpCSA value of Compound (I-72) was 1.14, and the calculated KpCSA KpCont. ratio was 0.9.
On the other hand the potential for drug-drug interactions through P-pg of amide compound B which has similar structure of Compound (I-72) was also examined in mice. The KpCont. and KpCSA were 0.04 and 0.84, respectively.

[1] = test system: high-fat diet-induced obese mice; assay: Suppression of body weight gain in high-fat diet-induced obese mice; type: in vivo; conditions: 6 mg/kg b.i.d. for 3 weeks, compared to vehicle
Method: Prior to administration of the compounds of this invention, male C57BL/6J mice were given a high-fat diet to induce obese. The high-fat diet-induced obese mice (13-14 week old, body weight 28-33 g) were dosed with 0.5% hydroxypropylmethyl cellulose solution (vehicle, Shin-Etsu Chemical Co., Ltd) or the compounds of this invention suspended in the 0.5% hydroxypropylmethyl cellulose solution twice a day (b.i.d.) for 3 weeks with the same diet. The changes in body weight were monitored daily.

T2 sequence (P21447 whole entry): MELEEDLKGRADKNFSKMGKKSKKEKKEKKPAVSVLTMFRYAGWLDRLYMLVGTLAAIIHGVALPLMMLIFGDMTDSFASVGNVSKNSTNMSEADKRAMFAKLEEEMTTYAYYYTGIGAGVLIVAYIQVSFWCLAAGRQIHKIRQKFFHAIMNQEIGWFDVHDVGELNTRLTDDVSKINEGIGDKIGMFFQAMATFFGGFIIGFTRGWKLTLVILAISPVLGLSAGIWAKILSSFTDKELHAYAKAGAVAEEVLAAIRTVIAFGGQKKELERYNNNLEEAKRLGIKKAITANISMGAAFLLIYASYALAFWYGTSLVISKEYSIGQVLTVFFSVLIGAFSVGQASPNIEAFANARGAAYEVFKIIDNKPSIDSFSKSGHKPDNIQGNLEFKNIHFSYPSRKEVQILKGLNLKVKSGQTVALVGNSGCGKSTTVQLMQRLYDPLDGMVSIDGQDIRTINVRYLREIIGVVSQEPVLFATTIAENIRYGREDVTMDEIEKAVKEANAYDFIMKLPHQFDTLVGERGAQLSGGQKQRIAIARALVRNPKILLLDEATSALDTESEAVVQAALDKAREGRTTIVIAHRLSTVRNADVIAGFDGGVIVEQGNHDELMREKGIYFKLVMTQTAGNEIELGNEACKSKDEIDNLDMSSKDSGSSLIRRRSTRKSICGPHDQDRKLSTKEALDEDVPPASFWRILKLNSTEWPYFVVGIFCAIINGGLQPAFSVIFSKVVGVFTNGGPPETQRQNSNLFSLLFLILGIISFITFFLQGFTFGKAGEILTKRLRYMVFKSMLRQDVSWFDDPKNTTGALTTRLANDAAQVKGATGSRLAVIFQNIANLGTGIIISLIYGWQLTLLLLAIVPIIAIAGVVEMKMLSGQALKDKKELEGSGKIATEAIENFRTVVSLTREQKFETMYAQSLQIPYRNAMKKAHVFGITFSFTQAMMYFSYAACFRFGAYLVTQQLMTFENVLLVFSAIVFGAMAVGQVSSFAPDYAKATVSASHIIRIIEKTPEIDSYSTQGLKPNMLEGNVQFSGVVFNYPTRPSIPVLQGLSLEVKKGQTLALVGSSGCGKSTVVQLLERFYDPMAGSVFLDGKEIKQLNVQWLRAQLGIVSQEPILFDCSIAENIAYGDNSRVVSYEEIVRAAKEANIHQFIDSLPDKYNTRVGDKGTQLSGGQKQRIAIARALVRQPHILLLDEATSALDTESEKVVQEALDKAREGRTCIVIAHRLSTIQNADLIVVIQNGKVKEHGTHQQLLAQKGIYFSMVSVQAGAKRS

SMILES | melting point | inhibition in vivo at 6 mg/kg (male C57BL/6J mice) | further results
CCS(=O)(=O)NC[C@H]1CC[C@H](Nc2ccc(-c3ccccc3)cn2)CC1 [Ij-4] |  | 88.2% | 
CC(C)(C)S(=O)(=O)NC[C@H]1CC[C@H](Nc2ccn(-c3ccccc3F)n2)CC1 [Ij-110] |  | 90.3% | 
CC(C)S(=O)(=O)NC[C@H]1CC[C@H](Nc2nc3cccc(F)c3s2)CC1 [Ij-153] |  | 73% | 
CCS(=O)(=O)N[C@H]1CC[C@H](CNc2cc(-c3ccccc3)on2)CC1 [Ii-44] |  |  | IC50 (mouse NPY Y5 receptor): 3.4 nM
C[C@@H]1CN(c2ccc(NC[C@H]3CC[C@H](NS(=O)(=O)C(C)(C)C)CC3)cc2)C[C@H](C)O1 [Compound I-72] |  |  | KpCSA/KpCont. ratio (P-gp): 0.9
CC(C)(C)S(=O)(=O)NC[C@H]1CC[C@H](Nc2nc3ccc(F)cc3o2)CC1 [Ij-159] |  | 83.2% | 
C[C@@H]1CN(c2ccc(NC(=O)[C@H]3CC[C@H](NS(=O)(=O)C(C)(C)C)CC3)cc2)C[C@H](C)O1 [amide compound B, reference compound] |  |  | KpCSA/KpCont. ratio (P-gp): 20.5
CCS(=O)(=O)NC[C@H]1CC[C@H](Nc2ccn(-c3ccccc3F)n2)CC1 [Ij-112] |  |  | Body weight gain [1]: suppresses Body Weight Gain
CC(C)S(=O)(=O)N[C@H]1CC[C@H](CNc2cc(F)cc(N3CCOCC3)c2)CC1 [Ii-55] |  | 64.3% | 
CCC(C)S(=O)(=O)NC[C@H]1CC[C@H](Nc2nc3cc(F)ccc3o2)CC1 (stereo partly drawn) [Ij-160] |  |  | inhibition in vivo at 1.5 mg/kg (male C57BL/6J mice): 36.6%
Cn1c(=O)oc2cc(NC[C@H]3CC[C@H](NS(=O)(=O)C(C)(C)C)CC3)cc(F)c21 [Ii-45] |  | 76.2% | Body weight gain [1]: suppresses Body Weight Gain
CC(C)S(=O)(=O)NC[C@H]1CC[C@H](Nc2nc3cc(F)ccc3o2)CC1 [Ij-155] |  |  | inhibition in vivo at 1.5 mg/kg (male C57BL/6J mice): 56.1%

Second part, led by results:

melting point | SMILES | inhibition in vivo at 6 mg/kg (male C57BL/6J mice) | further results
170 to 171 °C | CCS(=O)(=O)NC[C@H]1CC[C@H](Nc2nc3ccccc3o2)CC1 [Ij-150] | 25.3% | 
170 to 171 °C | CC(C)S(=O)(=O)NC[C@H]1CC[C@H](Nc2nc3ccc(F)cc3o2)CC1 [Ij-156] |  | inhibition in vivo at 12.5 mg/kg (male C57BL/6J mice; **Dose: 12.5 mg/kg): 90.4%
173 to 174 °C | CCC(C)S(=O)(=O)NC[C@H]1CC[C@H](Nc2nc3ccc(F)cc3o2)CC1 (stereo partly drawn) [Ij-161] |  | inhibition in vivo at 1.5 mg/kg (male C57BL/6J mice): 15.8%
151 to 152 °C | CC(C)S(=O)(=O)NC[C@H]1CC[C@H](Nc2nc3ccc(F)cc3s2)CC1 [Ij-152] |  | inhibition in vivo at 1.5 mg/kg (male C57BL/6J mice): 62.6%
166 to 167 °C | CC(C)S(=O)(=O)NC[C@H]1CC[C@H](Nc2nc3cc(Cl)ccc3s2)CC1 [Ij-154] | 81.3% | 
165 to 166 °C | CC(C)S(=O)(=O)NC[C@H]1CC[C@H](Nc2nc3cc(F)ccc3s2)CC1 [Ij-151] |  | inhibition in vivo at 1.5 mg/kg (male C57BL/6J mice): 78.4%
220 to 221 °C | CC(C)(C)S(=O)(=O)NC[C@H]1CC[C@H](Nc2nc3cc(F)ccc3o2)CC1 [Ij-158] | 70.5% | 
